Assay results published in EP1148048A2, “Polyaromatic antiviral compositions” (PHARMACIA & UPJOHN COMPANY, priority 1997, dated 1998).
Read-outs that look alike come from different tables or passages of the source.

Tests used:
Assay type in all cases: cell-based
HSV-1 = experiment: Virus yield reduction assay, inhibition of HSV-1 viral replication in Vero cells; details: read-out: % Inhibition Against HSV-1 Viral Replication
Description: (§1) Compounds of the formulas II and III of the present invention are evaluated in an assay to measure the inhibition of HSV-1 viral replication in the presence of drug over a 14-16 hour period. The assay is discussed in detail by Pritchard, M.N. et al. "A Microliter Virus Yield Reduction Assay for the Evaluation of Antiviral Compounds Against Human Cytomegalovirus and Herpes Simplex Virus", J. Virol. Meth., Vol. 28, pp 101-106 (1990). Briefly, 80% confluent monolayers of Vero cells in 24 well plates are infected with low multiplicities of HSV-1 (MOI = .001). After an absorption period of 1 hour at 37 °C, the monolayers are rinsed with culture media and aliquots of compounds diluted into tissue culture media are added for 14-16 hours at 37 °C in a CO2 atmosphere. The growth media is removed and 1 ml of fresh media is added to each well and plates are placed at -70 °C. After a 1-5 day storage period the plates are rapidly thawed, samples are collected on ice and titrated on fresh Vero cell monolayers. Viral plaques are stained with 0.1% crystal violet in 20% alcohol for 10 minutes and are counted. Data are calculated to reflect the percentage of inhibition at indicated concentration relative to infected, non-drug treated controls.

HSV-2 = experiment: Virus yield reduction assay, inhibition of HSV-2 viral replication (substantially the same assay as for HSV-1)
Description: as §1
Compounds of the formulas II and III of the present invention are also evaluated in substantially the same assay as described above to measure the inhibition of HSV-2 viral replication.

VZV = experiment: Plaque reduction assay, VZV replication in HFF cells over five days
Description: Antiviral activity against VZV are evaluated in an assay to measure the reduction of viral replication in the number viral plaques formed over five days of incubation in the presence of compounds of the present invention. Aliquots of VZV are added for 90 minutes to 24 well plates having HFF cells at 80% confluence to yield approximately 25 plaques for media treated wells. The plates are flicked and dilutions of compounds in tissue culture media at 2 time strength are added (0.5 ml per well). Immediately following the addition of drug 0.5 ml of 1.0% agarose is added to the wells and the plates are gently tapped to aid mixing. This final concentration of agarose (0.5%) is insufficient to solidify at 37 °C and serves as a semi solid overlay medium. Plates are undisturbed for five days. On day 5 the plates are examined microscopically for toxicity and plaques are counted using low power microscopy.

[1] = Human alphaherpesvirus 1, Vero, 14 h
[2] = Human alphaherpesvirus 1, 14 h, 5 µm, Vero cells, MOI = .001, 14-16 hours
[3] = Human alphaherpesvirus 1, 14 h, 30 µm, Vero cells, MOI = .001, 14-16 hours

| SMILES | inhibition at 5 µM (HSV-1; [1]) [%] | inhibition at 30 µM (HSV-1; [1]) [%] | inhibition at 5 µM (HSV-1; [2]) [%] | inhibition at 30 µM (HSV-1; [3]) [%] | also measured |
| --- | --- | --- | --- | --- | --- |
| Cc1ccc(NC(=S)Nc2ccc(Cl)cc2)cc1NC(=S)Nc1ccc(Cl)cc1 [Example 1, N,N"-(4-methyl-1,3-phenylene)bis[N'-(4-chlorophenyl)thiourea]] | < 0 | 0 to 50 |  |  |  |
| COc1ccc(NC(=O)Nc2ccc([N+](=O)[O-])cc2)cc1NC(=O)Nc1ccc([N+](=O)[O-])cc1 [Example 2, N,N"-(4-methoxy-1,3-phenylene)bis[N'-(4-nitrophenyl)urea]] |  |  | < 0 | 50 to 90 |  |
| COc1ccc(NC(=O)Nc2ccc(Cl)cc2)cc1NC(=O)Nc1ccc(Cl)cc1 [Example 3, N,N"-(4-methoxy-1,3-phenylene)bis[N'-(4-chlorophenyl)urea]] | 0 to 50 | 0 to 50 |  |  |  |
| COc1ccc(NC(=O)Nc2ccc(C)cc2)cc1NC(=O)Nc1ccc(C)cc1 [Example 4, N,N"-(4-methoxy-1,3-phenylene)bis[N'-(p-tolyl)urea]] | 0 to 50 | 0 to 50 |  |  |  |
| CSC(=Nc1ccccc1)Nc1ccc(Oc2ccc(NC(=Nc3ccccc3)SC)cc2)cc1 [Example 5, dimethyl N,N"-(oxydi-4,1-phenylene)bis [N'-(phenyl) carbamimidothioate]] |  |  | < 0 | 0 to 50 |  |
| COc1ccc(NC(=S)Nc2ccc(Cl)cc2)cc1NC(=S)Nc1ccc(Cl)cc1 [Example 6, N,N"-(4-methoxy-1,3-phenylene)bis[N'-(4-chlorophenyl)thiourea]] | < 0 | 0 to 50 |  |  |  |
| COc1ccc(NC(=S)Nc2ccc([N+](=O)[O-])cc2)cc1NC(=S)Nc1ccc([N+](=O)[O-])cc1 [Example 7, N,N"-(4-methoxy-1,3-phenylene)bis[N'-(4-nitrophenyl)thiourea]] |  |  | < 0 | 0 to 50 |  |
| CSC(=Nc1ccc([N+](=O)[O-])cc1)Nc1ccc(Oc2ccc(NC(=Nc3ccc([N+](=O)[O-])cc3)SC)cc2)cc1 [Example 8, dimethyl N,N"-(oxydi-4,1-phenylene)bis[N'-(4-nitrophenyl)carbamimidothioate]] |  |  | < 0 | 0 to 50 |  |
| COc1cccc(NS(=O)(=O)c2ccc(Oc3ccc(S(=O)(=O)Nc4cccc(OC)c4)cc3)cc2)c1 [Example 9, bis[N-(3-methoxyphenyl)aminosulfonyl](oxydi-4,1-phenylene)] | 0 to 50 | > 90 |  |  |  |
| Cc1ccc(NS(=O)(=O)c2cccc(S(=O)(=O)Nc3ccc(C)cc3)c2)cc1 [Example 10, N,N"-(1,3-phenylene)bis[N-(p-tolyl)aminosulfonyl]] | 0 to 50 | 50 to 90 |  |  |  |
| Cc1cccc(NS(=O)(=O)c2ccc(Oc3ccc(S(=O)(=O)Nc4cccc(C)c4)cc3)cc2)c1 [Example 11, bis[N-(3-methylphenyl)aminosulfonyl](oxydi-4,1-phenylene)] | < 0 | 50 to 90 |  |  |  |
| CSC(=NCCc1ccccc1)Nc1ccc(Oc2ccc(NC(=NCCc3ccccc3)SC)cc2)cc1 [Example 12, dimethyl N,N"-(oxydi-4,1-phenylene)bis[N'-(2-phenylethyl)carbamimidothioate]] |  |  | 50 to 90 | > 90 | % Inhibition Against HSV-2 Viral Replication (HSV-2; 1µm): + (<50% inhibition at the indicated concentration); % Inhibition Against HSV-2 Viral Replication (HSV-2; 10 µm): ++ (> 50% inhibition at the indicated concentration); % Inhibition Against VZV Viral Replication (VZV; 2µm): +++ (>90% inhibition at the indicated concentration) |
| N=C(Nc1ccc(Cc2ccc(NC(=N)c3ccccc3)cc2)cc1)c1ccccc1 [Example 13, N,N"-(methylenedi-4,1-phenylene)bis [benzenecarboximidamide]] | 0 to 50 | > 90 |  |  | % Inhibition Against HSV-2 Viral Replication (HSV-2; 1µm): + (<50% inhibition at the indicated concentration); % Inhibition Against HSV-2 Viral Replication (HSV-2; 10 µm): +++ (>90% inhibition at the indicated concentration); % Inhibition Against VZV Viral Replication (VZV; 2µm): + (<50% inhibition at the indicated concentration) |
| O=[N+]([O-])c1ccc(NC(=S)Nc2ccc(Oc3ccc(NC(=S)Nc4ccc([N+](=O)[O-])cc4)cc3)cc2)cc1 [Example 14, N,N"-(oxydi-4,1-phenylene)bis[N'-(4-nitrophenyl)thiourea]] |  |  | < 0 | 0 to 50 |  |
| S=C(NCCc1ccccc1)Nc1ccc(Oc2ccc(NC(=S)NCCc3ccccc3)cc2)cc1 [Example 15, N,N''-(oxydi-4,1-phenylene)bis[N'-(2-phenylethyl)thiourea]] | 0 to 50 | 0 to 50 |  |  | % Inhibition Against HSV-2 Viral Replication (HSV-2; 1µm): + (<50% inhibition at the indicated concentration); % Inhibition Against HSV-2 Viral Replication (HSV-2; 10 µm): + (<50% inhibition at the indicated concentration); % Inhibition Against VZV Viral Replication (VZV; 2µm): +++ (>90% inhibition at the indicated concentration) |
| O=C(Nc1ccc(Oc2ccc(NC(=O)c3ccco3)cc2)cc1)c1ccco1 [Example 16, N,N"-(oxydi-4,1-phenylene)bis(2-furancarboxamide)] | 0 to 50 | 50 to 90 |  |  |  |
| O=S(=O)(c1ccc(OCc2ccc(Cl)cc2)cc1)c1ccc(OCc2ccc(Cl)cc2)cc1 [Example 17, bis(4-chlorobenzyloxy)(sulfonyldi-4,1-phenylene)] | 0 to 50 | 50 to 90 |  |  | % Inhibition Against HSV-2 Viral Replication (HSV-2; 1µm): ++ (> 50% inhibition at the indicated concentration); % Inhibition Against HSV-2 Viral Replication (HSV-2; 10 µm): ++ (> 50% inhibition at the indicated concentration); % Inhibition Against VZV Viral Replication (VZV; 2µm): ++ (> 50% inhibition at the indicated concentration) |
| O=S(=O)(c1ccc(OCc2ccc(Br)cc2)cc1)c1ccc(OCc2ccc(Br)cc2)cc1 [Example 18, bis(4-bromobenzyloxy)(sulfonyldi-4,1-phenylene)] | 0 to 50 | 50 to 90 |  |  | % Inhibition Against VZV Viral Replication (VZV; 10µm): +++ (>90% inhibition at the indicated concentration) |
| O=S(=O)(c1ccc(OCc2ccncc2)cc1)c1ccc(OCc2ccncc2)cc1 [Example 19, bis[(4-pyridyl)methoxy](sulfonyldi-4,1-phenylene)] | 0 to 50 | 0 to 50 |  |  |  |
| O=S(=O)(c1ccc(OCc2ccc(F)cc2)cc1)c1ccc(OCc2ccc(F)cc2)cc1 [Example 20, bis(4-fluorobenzyloxy)(sulfonyldi-4,1-phenylene)] | 0 to 50 | 50 to 90 |  |  |  |
| O=[N+]([O-])c1ccc(COc2ccc(S(=O)(=O)c3ccc(O)cc3)cc2)cc1 [Example 21, hydroxy(4-nitrobenzyloxy)(sulfonyldi-4,1-phenylene)] | < 0 | 50 to 90 |  |  |  |
| O=S(=O)(c1ccc(O)cc1)c1ccc(OCc2ccc(Cl)cc2)cc1 [Example 22, (4-chlorobenzyloxy)hydroxy(sulfonyldi-4,1-phenylene)] | < 0 | 50 to 90 |  |  |  |
| O=[N+]([O-])c1ccc(NC(=S)Nc2ccc(Cc3ccc(NC(=S)Nc4ccc([N+](=O)[O-])cc4)cc3)cc2)cc1 [Example 23, N, N"-(methylenedi-4,1-phenylene)bis[N'-(4-nitrophenyl)thiourea]] |  |  | < 0 | > 90 | % Inhibition Against VZV Viral Replication (VZV; 10µm): + (<50% inhibition at the indicated concentration) |
